These results are taken from patent publication US11142504B2, “Substituted heterocycles as c-MYC targeting agents” (Northwestern University, priority 2016, dated 2021).

Each structure is given as a SMILES string.

Data set [1] concerns the target MYC/Max binding to DNA (Homo sapiens, UniProt P01106). Put plainly: Electrophoretic mobility shift assay (EMSA). On the procedure:
We also tested our best hit compound Min9 (NUCC-0176234) and newly synthesized analogs for effects of these compounds on MYC/Max binding to DNA in electrophoretic mobility shift assays (EMSAs). (See FIG. 5a and FIG. 5b). We expected the active compounds to impair MYC/Max binding to DNA. Several structural analogs of Min9 were tested over multiple doses for inhibiting MYC-DNA binding and we observed a dose-dependent inhibition. (See FIG. 5c).

The subject of data set [2] is MycCap cells. Put plainly: Cell viability of MycCap cells. In kind it is cell-based. Particulars: Mus musculus, Myc-CaP.
Data set [3] can be described thus: Stability in mouse liver microsomes. In kind it is in vitro ADME. The settings on record: % remaining of compound after 60 min treatment with mouse liver microsomes. As for the experimental part:
(§1) In vitro metabolism of NUCC-176242 and NUCC-176248 were tested using mouse liver microsomes and a mouse S9 fraction. (See FIG. 9).
(In general: Liver microsomes are a subcellular fraction often used to study metabolism.)

The subject of data set [4] is PC12 cells. Put plainly: Cell viability of PC12 cells. Particulars: for IC50: Rattus norvegicus, PC-12, Cell viability of PC12 cells. In kind it is cell-based. As for the experimental part: (§2) PC3 prostate cancer cell line with high Myc level and PC12 pheochromocytoma tumor cell line with non functional Max protein, which is not dependent on Myc-Max complex, were phased from ATCC. Cells were plated in 96 well plate at 1000 cells per well, and Myc inhibitor 361 at various concentrations was added to the cells next day. After 3 days of treatment, fresh medium with 361 were added again, and cell viability was measured by MTS assay at day 5 after the treatment. (See FIG. 11).

Data set [5] deals with MYC transcriptional activity. Put plainly: MYC E-Box luciferase reporter assay. Particulars: MycCap Ebox-luc, 4 hours of treatment. The format is cell-based. As for the experimental part:
To test the compounds, we evaluated the in silico hits in a MYC E-Box luciferase reporter assay to measure the effects of these compounds (referred to as Min-1 to Min-32) on MYC transcriptional activity. […] (See FIG. 2).
MycCap cells stably expressing luciferase with CMV promoter (MycCap-luc) or c-Myc E-box-luciferase reporter (MycCap Ebox-luc) were plated at 10000 cells per well in 96 well white-wall plate. Serial dilutions of 361 were treated next day. At 4 hours of treatment, luminescence signal was determined immediately after adding 150 μg/ml of Luciferin to the well. (See FIG. 12).
Background: Reporter assays use an easily measured gene product as a stand-in for the process of interest.

The subject of data set [6] is PC3 prostate cancer cell line. Put plainly: Proliferation assay (MTS), PC3 cells. Particulars: MTS at day 5. The format is cell-based. On the procedure:
as §2

Data set [7] has as its system MycCap cells. Put plainly: MycCap FVB allograft model. The format is in vivo, FVB mice. On the procedure:
FVB mice were inoculated with 1×10^6 of MycCap cells in 100 ul of matrigel subcutaneously on both flanks of the mice. When tumor size reached average size of 150 mm^3, mice were randomized based on tumor volume to 2 groups. Mice were administered with 50 mg/kg of 361 or vehicle (Veh) twice daily intra-peritoneally for two days. The treatment was suspended for 10 day, and initiated the treatment with a lower dose […] daily for another 9 days. Tumor size was measured twice a week during the experiment. (See FIG. 15).
MycCap FVB allograft model was treated with 361 (50 mg/kg) for two days, following by two days of anti-PD-1 antibody (100 ug/day), and kept this 4-day treatment cycle for 4 cycles. (See FIG. 16).

Data set [8] relates to MV411 cells. Put plainly: AML xenograft model, combination with Ara-C. The format is in vivo, CB17 SCID mice. Particulars: AML mice xenograft. On the procedure: CB17 SCID mice were inoculated with MV411 cells at the density of 5×10^6 suspended in PBS and matrigel (1:1). The mice were randomized based on tumor volume into 6 different groups after the tumor reached ˜200 to 500 mm^3. The mice were treated either with vehicle, NU031, NU975 alone or in combination with cytarabine (Ara-C). […] (See FIG. 17).

The test system of data set [9] is MYC WT and KO fibroblasts. Put plainly: Growth inhibition of wild type and MYC knockout rat fibroblasts. In kind it is cell-based. From the text:
We tested the top 13 active compounds in the first screen assay. […] More than half of the tested compounds show better growth inhibitory effect on MYC WT compared to MYC KO cells.

Data set [10] can be described thus: In vitro metabolism in mouse S9 fraction. The format is in vitro ADME. As for the experimental part:
as §1

The test system of data set [11] is cMYC wild-type (WT) and cMYC KO line. Put plainly: Cell viability assay, cMYC wild-type line vs cMYC KO line. The format is cell-based. On the procedure:
Min9 (NUCC-0176234) was also tested in a cell viability assay against a cMYC wild-type (WT) and a cMYC KO line.

Sequence of MYC/Max binding to DNA (P01106 whole entry, species assumed): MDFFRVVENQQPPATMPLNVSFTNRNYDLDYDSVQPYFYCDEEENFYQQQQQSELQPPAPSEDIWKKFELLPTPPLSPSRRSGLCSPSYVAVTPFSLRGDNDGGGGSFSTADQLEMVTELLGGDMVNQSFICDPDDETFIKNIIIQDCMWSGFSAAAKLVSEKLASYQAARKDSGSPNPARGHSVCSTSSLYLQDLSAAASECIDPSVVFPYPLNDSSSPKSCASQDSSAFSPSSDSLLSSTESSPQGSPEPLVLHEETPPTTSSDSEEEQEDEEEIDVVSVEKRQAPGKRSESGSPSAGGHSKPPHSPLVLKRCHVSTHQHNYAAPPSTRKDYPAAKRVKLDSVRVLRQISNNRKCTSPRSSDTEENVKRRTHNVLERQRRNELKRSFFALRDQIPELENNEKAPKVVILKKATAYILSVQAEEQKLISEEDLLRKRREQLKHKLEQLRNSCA

`Oc1c(-c2cc(C(F)(F)F)[nH]n2)ccc(OCc2ccc(Cl)cc2)c1-c1ccccc1Cl` [NUCC-0196363]: the values for the IC50 in [1] and in data set [2] were 61.8 µM and 4 µM, respectively. The “MLM % at 60 min” value in data set [3] was 88.6%.

Turning to `Cn1nc(C(F)(F)F)cc1-c1ccc(OCc2ccc(Cl)cc2)c(-c2cc(C(F)(F)F)cc(C(F)(F)F)c2)c1O` [compound 361], the “proliferation of Myc independent cell line PC12” value in [4] (MTS at day 5) is given as “not”. Moreover, the c-Myc transcription activity result in [5] was “inhibits c-Myc transcription activity as an early event before affecting cell viability”. For the same compound, the “proliferation of Myc dependent cell line PC3” value in data set [6] is “specifically inhibits proliferation”. Further, the “tumor progression, combination with immunotherapy” value in data set [7] (361 50 mg/kg with anti-PD-1 antibody, 4-day cycles) is listed as “significantly blocks tumor progression”. Moreover, the tumor volume entry in data set [7] (mouse prostate cancer allograft, intra-peritoneally) is “reduces tumor volume”.

Regarding `Cn1nc(C(F)(F)F)cc1-c1ccc(OCc2ccc(Cl)cc2)c(-c2ccc(Cl)c(C(F)(F)F)c2)c1O` [NUCC-0200975], the values for the half-maximal inhibitory concentration (IC50) in data set [2] and in [4] were 6.1 µM and 38.4 µM, respectively. Moreover, in [8] (listed as 975), the “anti-tumor effect in combination with Ara-C” value (from here on “anti-tumor effect”) is listed as “significant synergic anti-tumor effect with Ara-C”.

As to `CCc1ccc(Oc2c(-c3ccc(OCc4ccc(Cl)cc4)cc3O)nn(C)c2C(F)(F)F)cc1` [NUCC-0176248], the IC50 – broadly, the concentration that gives 50% inhibition – in [2] worked out at 3.4 µM; in data set [4], 7.8 µM. Besides, the “selectivity of growth inhibition, MYC WT vs MYC KO cells” value in data set [9] is “high specificity”.

For the compound `Oc1cc(OCc2ccc(Cl)cc2)ccc1-c1n[nH]c(C(F)(F)F)c1-c1ccccc1` [NUCC-0198295], the IC50 in data set [1] amounted to 53.3 µM; in data set [2] it was 4.6 µM.

`CCCCOc1ccc(-c2cc(C(F)(F)F)n[nH]2)c(O)c1-c1cc(C(F)(F)F)cc(C(F)(F)F)c1` [NU031]: the “anti-tumor effect” value in [8] was “significant difference compared to control group”.

As to `CCc1ccc(Oc2c(-c3ccc(OCc4ccncc4)cc3O)n[nH]c2C(F)(F)F)cc1` [NUCC-0176250], in [9], the “selectivity of growth inhibition, MYC WT vs MYC KO cells” value is “great selectivity”.

For the compound `Cn1nc(C(F)(F)F)cc1-c1ccc(OCc2ccc(Cl)cc2)c(-c2ccc(Cl)c(C(F)(F)F)c2)c1O` [NU975], the “anti-tumor effect” value in [8] is listed as “significant difference compared to control group”.

In the case of `Oc1cc(OCc2ccc(Cl)cc2)ccc1-c1n[nH]c(C(F)(F)F)c1Oc1ccccc1Cl` [NUCC-0196342], the IC50 in data set [1] was found to be 64.4 µM; in [2], 3.5 µM. For the same compound, the “MLM % at 60 min” value in [3] came out at 87.4%.

As for `CCc1ccc(Oc2c(-c3ccc(OCc4ccc(Cl)cc4)cc3O)n[nH]c2C(F)(F)F)cc1` [NUCC-0176242], the 50% inhibitory concentration (IC50) in [2] came to 3.1 µM; in [4], 9.8 µM. The “in vitro metabolism by mouse S9 fraction” value in data set [10] is given as “significantly metabolism by the mouse S9 fraction”.

On to `COc1cccc(-c2c(-c3ccc(OCc4ccc(Cl)cc4)cc3O)n[nH]c2C(F)(F)F)c1` [NUCC-0198309], for which the IC50 in data set [1] stood at 61.2 µM; in data set [2], 4 µM. Moreover, the “MLM % at 60 min” value in data set [3] turned out to be 74%.

`CCc1ccc(Oc2c[nH]nc2-c2ccc(OCc3cnn(-c4ccccc4)c3)cc2O)cc1` [NUCC-0176234]: the “inhibition of MYC/Max binding to DNA (in words)” value in data set [1] is given as “prevent c-MYC/DNA binding”. For the same compound, the “cell viability, WT line vs KO cells” value in [11] is “reduces cell viability much more in the WT line than the KO cells”.

Regarding `Cn1nc(C(F)(F)F)cc1-c1ccc(OCc2ccc(Cl)cc2)c(-c2cc(C(F)(F)F)cc(C(F)(F)F)c2)c1O` [NUCC-0196361], the IC50 in [1] was found to be 63 µM; in [2] it was 3.8 µM; in data set [4], 30.7 µM. Besides, the “MLM % at 60 min” value in [3] is recorded as 72.9%.

As to `Oc1c(-c2cc(C(F)(F)F)[nH]n2)ccc(OCc2ccc(Cl)cc2)c1-c1cc(C(F)(F)F)cc(C(F)(F)F)c1` [NUCC-0196362], the 50% inhibitory concentration (IC50) stood at 102 µM in data set [1] and 4 µM in data set [2].

Consider `CCc1c(OCc2ccc(Cl)cc2)ccc(-c2cc(C(F)(F)F)n[nH]2)c1O` [NUCC-0200739], for which the half-maximal inhibitory concentration (IC50) was 2.2 µM in data set [2] and 19.4 µM in data set [4]. In addition, the “MLM % at 60 min” value in data set [3] worked out at 46.4%.
